Measurements from PMC9544171, “Glucose‐dependent insulinotropic polypeptide receptor antagonist treatment causes a reduction in weight gain in ovariectomised high fat diet‐fed mice” (British Journal of Pharmacology, 2022).
Where no end group is shown, it is not given here.

Key:
[1] = target: T1, human GIP receptor (Homo sapiens, UniProt P48546); details: previously shown, [2016], cited from earlier work
T1 construct: host or cells: COS-7
T1 sequence (P48546 22-466): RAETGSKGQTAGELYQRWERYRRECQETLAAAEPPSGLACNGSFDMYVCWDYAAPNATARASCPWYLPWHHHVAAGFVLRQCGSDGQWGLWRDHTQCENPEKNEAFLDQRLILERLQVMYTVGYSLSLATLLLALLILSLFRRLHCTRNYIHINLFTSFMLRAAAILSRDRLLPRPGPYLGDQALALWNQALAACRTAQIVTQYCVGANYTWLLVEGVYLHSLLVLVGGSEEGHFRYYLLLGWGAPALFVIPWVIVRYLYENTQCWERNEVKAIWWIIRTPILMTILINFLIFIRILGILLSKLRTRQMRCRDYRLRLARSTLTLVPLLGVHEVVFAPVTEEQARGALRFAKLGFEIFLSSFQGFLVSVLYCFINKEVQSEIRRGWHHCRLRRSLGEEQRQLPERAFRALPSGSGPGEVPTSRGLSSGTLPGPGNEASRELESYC
Description: The antagonistic properties of mGIPAnt‐1 were determined in vitro in cAMP accumulation before initiation of the in vivo studies in comparison to the naturally occurring […] GIP(3‐30)NH2. The experiments were done on both the human and mouse GIP receptor to examine the translatability between species. To keep the experiments species specific, mGIPAnt‐1 was compared to mouse GIP(3‐30)NH2 (mGIP(3‐30)NH2) on the mouse GIP receptor and human GIP(3‐30)NH2 (hGIP(3‐30)NH2) on the human GIP receptor. We also determined whether mGIPAnt‐1 had any intrinsic activity. Here we observed no activation of the ...

[2] = target: T2, mouse GLP‐2 receptor (Mus musculus, UniProt Q5IXF8); assay: cAMP accumulation, agonism in transfected COS‐7 cells; assay type: cell-based; details: increasing concentrations, COS‐7, n = 5
T2 construct: host or cells: COS-7
T2 sequence (Q5IXF8 1-512): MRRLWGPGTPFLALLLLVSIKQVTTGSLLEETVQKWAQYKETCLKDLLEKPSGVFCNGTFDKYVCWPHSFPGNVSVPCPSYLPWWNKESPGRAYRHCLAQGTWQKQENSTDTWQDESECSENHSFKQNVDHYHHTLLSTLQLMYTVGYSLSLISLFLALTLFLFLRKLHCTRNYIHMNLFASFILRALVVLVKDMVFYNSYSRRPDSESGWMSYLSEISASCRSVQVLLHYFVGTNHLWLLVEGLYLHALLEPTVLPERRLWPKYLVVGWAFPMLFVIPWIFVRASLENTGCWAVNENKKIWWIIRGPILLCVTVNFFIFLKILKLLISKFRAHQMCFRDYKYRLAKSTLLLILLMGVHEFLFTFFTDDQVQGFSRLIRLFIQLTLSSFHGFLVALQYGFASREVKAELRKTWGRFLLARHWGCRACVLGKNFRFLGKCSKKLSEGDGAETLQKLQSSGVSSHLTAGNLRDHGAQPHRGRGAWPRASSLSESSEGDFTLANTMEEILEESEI
Description: (§1) COS‐7 cells were cultured at 10% CO2 and 37°C in Dulbecco's Modified Eagle Medium 1885 supplemented with 10% foetal bovine serum, 2‐mM glutamine, 180‐units ml^−1 penicillin and […] streptomycin. Transient transfection of the cells with either human or mouse GIP receptor was performed using the calcium phosphate precipitation method as previously described (van der Velden et al., [2021]). A second set of cells was transiently transfected with either mouse GLP‐1 or GLP‐2 receptor. Following the day after transfection, the cells were seeded in white 96‐well plates with a density of 35.000 cells per well. The next day the assay was initiated by washing the cells with HEPES buffered saline (HBS) followed by an incubation step with HBS and 1‐mM 3‐isobutyl‐1‐methylxanthine for 30 min at 37°C. For agonist studies, the ligands were then added and incubated for an additional 30 min at 37°C. To test for antagonistic properties, the cells were first preincubated for 10 min with the antagonist with subsequent addition of the agonist and incubated for an additional 20 min. The HitHunter® cAMP assay (Eurofins DiscoverX, Fremont, USA) was carried out according to the manufacturer's protocol. Luminescence was measured by PerkinElmer™ Envision 2014 Multilabel Reader.
FIGURE 2 In vitro signalling profile of mGIPAnt‐1 on the mouse GLP‐1 and GLP‐2 receptor (R). […]

[3] = target: T3, mouse GIP receptor (Mus musculus, UniProt Q0P543); assay: cAMP accumulation, agonism (intrinsic activity) in transfected COS‐7 cells; assay type: cell-based; details: increasing concentrations of ligand alone, 30 min, COS‐7, n = 5
T3 construct: host or cells: COS-7
T3 sequence (Q0P543 19-460): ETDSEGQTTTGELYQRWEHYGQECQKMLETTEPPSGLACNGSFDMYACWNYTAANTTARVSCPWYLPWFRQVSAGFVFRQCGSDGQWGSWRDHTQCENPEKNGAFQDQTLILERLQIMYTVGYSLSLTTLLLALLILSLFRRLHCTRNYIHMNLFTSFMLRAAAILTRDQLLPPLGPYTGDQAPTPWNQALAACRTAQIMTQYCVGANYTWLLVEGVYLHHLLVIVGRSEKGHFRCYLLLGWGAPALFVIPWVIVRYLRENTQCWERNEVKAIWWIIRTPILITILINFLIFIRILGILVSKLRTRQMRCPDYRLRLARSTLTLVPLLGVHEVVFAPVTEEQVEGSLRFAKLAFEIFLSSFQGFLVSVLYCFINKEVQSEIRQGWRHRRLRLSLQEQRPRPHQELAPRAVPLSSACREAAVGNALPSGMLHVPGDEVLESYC
Description: as §1
(§2) To facilitate comparisons of assay outputs (cAMP assays), the results (of duplicate measurements) were normalized, with the response to 10 pM of GIP(1‐42) set as 100%. All ligand concentrations are reported as log‐transformed. The IC50 log values can be found in Figure 1. In Figure 3c, we have subtracted glucose levels from baseline to show the net differences in glucose levels in our different treatment groups.
FIGURE 1 In vitro signalling profile of mGIPAnt‐1 on the mouse and human glucose‐dependent insulinotropic polypeptide receptor/(GIPR). COS‐7 cells were transiently transfected with (a) mouse GIPR or (b) human GIPR and assayed for cAMP accumulation. To test for agonism, increasing concentration of the ligand was added. […]

[4] = target: T3, mouse GIP receptor; assay: cAMP accumulation, antagonism of mouse GIP(1‐42) in transfected COS‐7 cells; assay type: cell-based; details: COS‐7 transiently transfected with mouse GIPR; 10 min preincubation with antagonist, then mouse GIP(1‐42) at 50%–80% of Emax for 20 min; HitHunter cAMP; Hill slope −1.0; n = 5 independent experiments; read-out: IC50, inhibition of mGIP‐induced cAMP accumulation, mouse GIPR
Description: as §1
as §2, with “groups. […]” for “groups.”
Results are presented as mean ± SE. Data were analysed with one‐way and two‐way analysis of variance (ANOVA) with Tukey's or Sidak multiple comparisons test and Student's unpaired t tests where appropriate. […] For the in vitro data IC50 values were determined by nonlinear regression using GraphPad Prism 9 (San Diego, California, USA). […]

[5] = tested on: Female C57Bl6/J mice; assay: Intraperitoneal glucose tolerance test, inhibition of exogenous GIP; assay type: in vivo, mouse
Description: To assess the biological activity of mGIPAnt‐1, we performed an intraperitoneal glucose tolerance test. Mice were fasted for 4 h and given either mGIPAnt‐1 ([…]; s.c.) or vehicle at t = −90 min. Group sizes were as follows:‐ Vehicle + Vehicle, n = 10, Vehicle + GIP, n = 12 and mGIPAnt‐1 + GIP, n = 8. Varying group numbers were due to unsuccessful administration of one of the four compounds as confirmed by measurements of plasma concentrations. At t = −10 all mice were given an intraperitoneal (i.p.) injection with dipeptidyl peptidase‐4 (DPP‐4) inhibitor valine pyrrolidide followed by s.c. injection of either 25 nmol·kg^−1 GIP (Synthetic mouse GIP(1‐42) or vehicle. At t = 0 min, mice received an i.p. injection with 0.5‐g·kg^−1 glucose. Blood glucose was measured from the tail vein using a hand‐held glucometer (Accu‐Chek Mobile, Roche, Basel, Switzerland) at t = 0, 10, 30, 45, 60, 120 and 180 min. Retro‐orbital blood samples (50 μl) were taken using EDTA coated glass capillaries (Vitrex, Vasekær, Denmark) at t = 0, 15, 30 and 60, 120 and 180 min and centrifuged at 3500g, 20 min, 4°C. Plasma was transferred into Eppendorf tubes on dry ice and stored at −20°C for later insulin measurements.
as §2

Q: For “human GIP(3‐30)NH2 (EGTFISDYSIAMDKIHQQDFVNWLLAQK-NH2; UniProt P09681 54-81, looked up, fragment) [hGIP(3‐30)NH2]”, which “intrinsic activity (activation of human GIP receptor)” value ([1]; ref Gabe et al., [2018], Gasbjerg et al., [2017], Hansen et al.) is on record?
A: no activation

Q: What about the IC50 ([1]; ref Hansen et al., read-out: IC50, antagonism of human GIPR) of the same compound?
A: 12 nM

Q: Which “activation of mouse GLP‐2 receptor (cAMP)” value [2] does the source give for “mGLP‐2: mouse GLP‐2, control agonist at the mouse GLP‐2 receptor (HADGSFSDEMSTILDNLATRDFINWLIQTKITD; Glucagon-like peptide 2; UniProt P55095 146-178, looked up) [reference compound]” here?
A: shown to activate their receptors

Q: Which results are given for `CC[C@H](C)[C@H](NC(=O)[C@H](CO)NC(=O)[C@H](Cc1ccc(O)cc1)NC(=O)[C@H](CC(=O)O)NC(=O)[C@H](CO)NC(=O)[C@@H](NC(=O)[C@H](Cc1ccccc1)NC(=O)[C@@H](NC(=O)CNC(=O)[C@@H](N)CCC(=O)O)[C@@H](C)O)[C@@H](C)CC)C(=O)N[C@@H](C)C(=O)N[C@@H](CCSC)C(=O)N[C@@H](CC(=O)O)C(=O)N[C@@H](CCCCN)C(=O)N[C@H](C(=O)N[C@@H](CCCNC(=N)N)C(=O)N[C@@H](CCC(N)=O)C(=O)N[C@@H](CCC(N)=O)C(=O)N[C@@H](CC(=O)O)C(=O)N[C@@H](Cc1ccccc1)C(=O)N[C@H](C(=O)N[C@@H](CC(N)=O)C(=O)N[C@@H](Cc1c[nH]c2ccccc12)C(=O)N[C@@H](CC(C)C)C(=O)N[C@@H](CC(C)C)C(=O)N[C@@H](C)C(=O)N[C@@H](CCC(N)=O)C(=O)N[C@@H](CCCNC(=N)N)C(N)=O)C(C)C)[C@@H](C)CC` [mGIP(3‐30)NH2, mouse GIP(3‐30)NH2, reference compound]?
A: intrinsic activity (activation of mouse GIP receptor, cAMP) [3]: neither did mGIP(3‐30)NH2 activate; IC50 [4]: 813 nM

Q: With “Synthetic mouse GIP(1‐42) (YAEGTFISDYSIAMDKIRQQDFVNWLLAQRGKKSDWKHNITQ; Gastric inhibitory polypeptide; UniProt P48756 44-85, looked up) [reference compound]” as the compound, how does the “baseline‐subtracted glucose curve during IPGTT” value ([5]; mGIPAnt‐1 25 μmol·kg−1 s.c. t = −90 min, GIP 25 nmol·kg−1 s.c. and val‐pyr t = −10 min, glucose 0.5 g·kg−1 i.p., n = 8–12) read?
A: lowered glucose levels significantly from t = 45 min and onwards

Q: And the “glucose levels relative to baseline late in IPGTT” value ([5]; t = 120 and 180 min, same dosing as glucose curve)?
A: glucose levels dropped significantly below baseline at t = 120 and t = 180 min

Q: What about the “incremental area under the glucose curve (iAUC), IPGTT” value ([5]; vehicle + GIP 25 nmol·kg−1 versus vehicle + vehicle and versus mGIPAnt‐1 + GIP) of the same compound?
A: significantly different
